Legend:
Type in all cases: biochemical
[1] = molecular target: T1, meprin α (Homo sapiens, UniProt Q16819); assay: Kinetic parameters of meprin α mediated proteolysis in the presence of SR24717
T1 construct: Strep-tag; made in house; host or cells: BTI-TN-5B1-4 insect cells (baculovirus, amplified in Sf9)
T1 sequence (Q16819 66-746): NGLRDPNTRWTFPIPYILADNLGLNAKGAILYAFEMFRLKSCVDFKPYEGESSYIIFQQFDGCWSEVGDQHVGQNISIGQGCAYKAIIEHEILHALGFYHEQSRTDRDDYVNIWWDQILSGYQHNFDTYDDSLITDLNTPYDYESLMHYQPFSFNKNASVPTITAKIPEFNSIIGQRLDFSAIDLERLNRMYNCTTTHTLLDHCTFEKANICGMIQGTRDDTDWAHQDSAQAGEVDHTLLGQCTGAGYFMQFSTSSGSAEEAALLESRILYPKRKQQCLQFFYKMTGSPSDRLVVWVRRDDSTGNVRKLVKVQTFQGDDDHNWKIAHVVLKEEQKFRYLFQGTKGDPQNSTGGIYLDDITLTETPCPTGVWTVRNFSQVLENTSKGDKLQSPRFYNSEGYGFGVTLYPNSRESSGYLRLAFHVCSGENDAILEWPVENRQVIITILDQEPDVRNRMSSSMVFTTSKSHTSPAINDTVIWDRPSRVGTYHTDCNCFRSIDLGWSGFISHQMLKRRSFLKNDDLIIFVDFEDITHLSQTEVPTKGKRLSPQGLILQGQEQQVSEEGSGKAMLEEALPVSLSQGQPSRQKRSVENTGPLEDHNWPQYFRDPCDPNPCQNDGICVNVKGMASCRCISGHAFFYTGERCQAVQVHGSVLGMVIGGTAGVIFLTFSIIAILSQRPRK
Procedure: Substrate stock solutions were prepared at various concentrations in HTS assay buffer (50 mM HEPES, 0.01% Brij-35, pH 7.5). Assays were conducted by incubating a range of substrate (2–50 µM) and SR24717 concentrations (0–1000 nM) with 1.3 nM meprin α at 25 °C. Fluorescence was measured on a multimode microplate reader Synergy H1 (Biotek Instruments, Winooski, VT, USA) using λexcitation = 324 nm and λemission = 393 nm. Rates of hydrolysis were obtained from plots of fluorescence versus time, using data points from only the linear portion of the hydrolysis curve. The slope from these plots was divided by the fluorescence change corresponding to complete hydrolysis and then multiplied by the substrate concentration to obtain rates of hydrolysis in units of μM/s. Kinetic parameters were calculated by non-linear regression analysis using the GraphPad Prism 8.0 suite of programs.

[2] = molecular target: T1, meprin α; assay: Meprin α assay in a 384-well plate (fluorogenic substrate Mca-YVADAPK-K(Dnp)); settings: pre-incubation with meprin α for 0–3 h
[3] = test system: MMP-2, MMP-3, MMP-8, MMP-9, MMP-10, MMP-14, ADAM10, and ADAM17; assay: Selectivity panel of related metzincins; settings: all tested enzymes, Figure 4B
Procedure: Both assays followed the same general protocol. 2.5 µL of 2× enzyme solution (20 nM) in assay buffer (10 mM HEPES, 0.001% Brij-35, pH 7.5) were added to solid bottom black 384 plates (Greiner, cat# 789075). Next, test compounds and pharmacological controls were added to corresponding wells using a 384-pin tool device (V&P Scientific, San Diego). After 30 min incubation at RT, the reactions were started by addition of 2.5 µL of 2× solutions of substrate (R&D Systems cat#: ES010, Mca-KPLGL-Dpa-AR-NH2, 20 µM). Reactions were incubated at RT for 2 h, after which the fluorescence was measured using a Perkin Elmer Viewlux multimode microplate imager (λexcitation = 324 nm, λemission = 393 nm). All compounds were tested in 10-point, 1:3 serial dilutions dose-response format starting with highest concentration of 100 µM. IC50 values were determined using non-linear regression analysis using the GraphPad Prism 8.0 suite of programs.
All assays followed the same general protocol. […] Reactions were incubated at RT for 1 h, after which the fluorescence was measured using the Synergy H4 multimode microplate reader (Biotek Instruments) (λexcitation = 324 nm, λemission = 390 nm). […] IC50 values were determined using non-linear regression analysis using the GraphPad Prism 8.0 suite of programs.

[4] = molecular target: T2, ADAM10 (Homo sapiens, UniProt O14672); assay: ADAM10 assay
T2 construct: purchased R&D Systems 936-AD
T2 sequence (O14672 214-748): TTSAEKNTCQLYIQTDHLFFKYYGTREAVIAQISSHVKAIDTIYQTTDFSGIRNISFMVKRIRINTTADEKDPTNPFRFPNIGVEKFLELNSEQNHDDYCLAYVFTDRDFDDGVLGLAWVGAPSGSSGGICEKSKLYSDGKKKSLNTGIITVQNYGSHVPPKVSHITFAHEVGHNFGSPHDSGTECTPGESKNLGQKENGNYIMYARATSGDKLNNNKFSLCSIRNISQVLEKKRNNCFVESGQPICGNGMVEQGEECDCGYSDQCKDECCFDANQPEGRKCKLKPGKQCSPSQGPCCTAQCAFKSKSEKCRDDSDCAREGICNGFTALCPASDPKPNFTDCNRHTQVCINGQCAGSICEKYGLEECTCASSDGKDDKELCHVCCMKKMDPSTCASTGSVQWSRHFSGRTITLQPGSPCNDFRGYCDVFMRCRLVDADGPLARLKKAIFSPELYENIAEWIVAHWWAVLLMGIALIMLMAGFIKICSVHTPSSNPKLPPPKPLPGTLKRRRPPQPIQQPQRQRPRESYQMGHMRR
Procedure: All common chemicals were purchased from Sigma.
Both assays followed the same general protocol. […] After 30 min incubation at RT, the reactions were started by addition of 2.5 µL of 2× solutions of substrate (R&D Systems cat#: ES010, Mca-KPLGL-Dpa-AR-NH2, 20 µM). […] All compounds were tested in 10-point, 1:3 serial dilutions dose-response format starting with highest concentration of 100 µM. IC50 values were determined using non-linear regression analysis using the GraphPad Prism 8.0 suite of programs.

Compound: COc1cc(OC)nc(SCc2nnc(SCC(=O)NO)n2-c2ccc(N(C)C)cc2)n1 [SR24717]
- Ki ([1]; global fit to the competitive model of inhibition): 0.301 µM
- mode of inhibition of meprin α ([1]; varying substrate concentration): competitive
- time dependence of inhibition: change in IC50 values [2]: no change in IC50 values
- IC50 [3]: > 100 µM
- IC50 [4]: > 100 µM
